Results on 13 compounds are retold here after patent US10085983B2, “Azabicyclo derivatives, process for preparation thereof and medical use thereof” (Shanghai Haiyan Pharmaceutical Technology Co., Ltd., priority 2014, dated 2018).

The test system of one series is NIH3T3 cells. Kind of series: Toxicity test on NIH3T3 cells by MTT assay. It counts as cell-based. Conditions: 72 hours. In general terms: Formazan colour is commonly taken as a measure of viable cells.
Series [1] has as its target T790M/L858R double mutant EGFR kinase (Homo sapiens (Human), UniProt P00533, L858R/T790M). Kind of series: z'-lyte assay of inhibitory activity on T790M/L858R double mutant EGFR kinase. The series is classed as biochemical. Conditions: for Selective inhibitory activity against enzymes [IC50 (EGFR WT)/IC50 (T790M/L858R)]: ratio of enzyme IC50 values; for IC50: z'-lyte assay, 25 μM ATP.

In another series the test system is A431 cells. The series can be described thus: Cell growth inhibition by MTT assay, A431 cells. Conditions: 72 hours. It counts as cell-based.
The target in series [2] is EGFR phosphorylation in A431 (EGFR wild-type) cells (Homo sapiens (Human), UniProt P00533). The series can be described thus: Inhibition of EGFR phosphorylation in A431 cells (ELISA). It counts as cell-based. Conditions: 1 h compound treatment, EGF stimulation, read-out: A431 cell (IC50/μM).
Sequence of EGFR phosphorylation in A431 (EGFR wild-type) cells (P00533 25-1210): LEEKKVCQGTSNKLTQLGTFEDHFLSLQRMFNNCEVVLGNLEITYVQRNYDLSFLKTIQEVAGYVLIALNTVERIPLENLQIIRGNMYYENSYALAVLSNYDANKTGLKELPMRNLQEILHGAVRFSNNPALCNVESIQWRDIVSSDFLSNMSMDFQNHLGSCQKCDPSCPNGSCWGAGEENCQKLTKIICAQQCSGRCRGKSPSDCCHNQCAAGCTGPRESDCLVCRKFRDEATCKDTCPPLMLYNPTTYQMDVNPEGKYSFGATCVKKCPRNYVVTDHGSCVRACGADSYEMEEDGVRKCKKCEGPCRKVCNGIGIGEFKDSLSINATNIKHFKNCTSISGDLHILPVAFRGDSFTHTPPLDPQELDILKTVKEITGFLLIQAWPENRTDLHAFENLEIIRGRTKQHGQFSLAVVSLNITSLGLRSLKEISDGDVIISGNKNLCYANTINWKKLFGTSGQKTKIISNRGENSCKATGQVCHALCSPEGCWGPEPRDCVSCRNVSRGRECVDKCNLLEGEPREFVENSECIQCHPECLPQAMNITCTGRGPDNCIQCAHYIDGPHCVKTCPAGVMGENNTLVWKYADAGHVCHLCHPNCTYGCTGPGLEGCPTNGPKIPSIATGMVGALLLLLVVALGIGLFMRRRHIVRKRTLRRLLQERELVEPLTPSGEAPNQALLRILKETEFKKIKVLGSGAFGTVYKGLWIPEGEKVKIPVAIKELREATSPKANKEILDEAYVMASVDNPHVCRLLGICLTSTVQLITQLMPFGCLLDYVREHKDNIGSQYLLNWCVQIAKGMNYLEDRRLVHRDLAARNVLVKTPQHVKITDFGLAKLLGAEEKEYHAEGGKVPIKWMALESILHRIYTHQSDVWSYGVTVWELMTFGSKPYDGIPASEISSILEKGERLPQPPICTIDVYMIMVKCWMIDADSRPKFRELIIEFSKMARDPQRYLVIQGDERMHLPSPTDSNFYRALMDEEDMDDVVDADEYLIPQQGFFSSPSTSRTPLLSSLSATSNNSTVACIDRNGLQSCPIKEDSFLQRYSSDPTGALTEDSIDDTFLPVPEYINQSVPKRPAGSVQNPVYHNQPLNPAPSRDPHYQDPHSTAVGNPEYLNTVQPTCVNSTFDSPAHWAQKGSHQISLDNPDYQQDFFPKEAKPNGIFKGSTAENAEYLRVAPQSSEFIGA
Description: (§1) In the following methods, the reagents used, the preparation methods of solutions, the cell treatment and the preparation steps of the lysis solution, as well as the ELISA assay steps, were carried out according to the instructions of R&D DYC3570, R&D DYC1095E and R&D DYC1095BE.
I. Reagents and Solutions
(§2) Cell lysis solution: Cell lysis buffer+10 μg/mL Aprotinin (Sigma)+10 μg/mL Leupeptin (Sigma), prepared on site.
(§3) Wash buffer: PBS buffer containing 0.05% (v/v) Tween-20.
(§4) Blocking solution: PBS buffer containing 1% (w/v) BSA.
3.1 A431 Cell Treatment and Testing Procedures
(1) A431 cells (purchased from the Cell Bank of the Type Culture Collection Committee, Chinese Academy of Sciences) were seeded in 96-well plates at a density of 1×10^4/well in 90 μl of DMEM medium containing 10% FBS and cultured at 37° C. in 5% CO2 overnight.
(2) The A431 cell culture medium was replaced with 90 μl of serum-free DMEM medium and the plate was cultured overnight.
(3) The compound to be tested was diluted according to the drug dilution method in MTT assay. 10 μL of the diluted compound or diluted DMSO was added to the corresponding wells of the cell culture plate, and the final concentration of DMSO was 0.5%. The plate was cultured at 37° C. in 5% CO2 for 1 hour. […] The cells without EGF and drug treatment were used as cell control, and the cells treated with EGF without drugs were used as EGF control.
(4) The medium was removed and then 100 μL of the cell lysis solution was added. The plate was sealed and placed in a refrigerator at −80° C. overnight.
The assay was conducted according to the instructions given in R&D DYC3570E.
(1) R&D capture antibody (DYC3570E) was diluted with PBS in the proportion of 1:180.
(§5) (2) The plate was washed 3 times with 360 μL of the wash buffer.
(3) 200 μL of the blocking solution was added and the plate was incubated at 25° C. with shaking for 2 hours.
(4) The plate was washed 3 times with 360 μL of wash buffer.
(§6) (5) 40 μL of cell lysis buffer and 60 μL of cell lysis solution were added and the plate was incubated at 25° C. with shaking for 2 hours.
(§7) (6) The plate was washed 3 times with 360 μL of the wash buffer.
(§8) (7) The detection antibody was diluted with the detection antibody diluent in the proportion specified in the instructions of the kit. 100 μL of the diluted antibody was added to each well and the plate was incubated at 25° C. with shaking in dark for 1 h.
(8) The plate was washed 3 times with 360 μL of the wash buffer.
(9) A reagent and B reagent in TMB substrate (R&D DY999) were mixed in 1:1. 100 μL of the mixture was added to each well and incubated in dark at 25° C. with shaking for 20 min.
(§9) (10) 50 μL of 2N H2SO4 was added to each well.
(11) The plate was read with a microplate reader (Thermo Multiskan K3). OD 450 values and OD570 values of the cell control, blank control, and drug treatment wells were measured. ODEGF, ODdrug and ODcell were obtained by subtracting the corresponding OD570 value from the OD 450 value of the same well.
3.3 Data Analysis Inhibition rate (%)=100%×(ODEGF−ODdrug)/(ODEGF−ODcell)
The next series deals with wild-type EGFR kinase (Homo sapiens (Human), UniProt P00533). As to conditions: read-out: EGFR WT (IC50/μM); z'-lyte assay, 10 μM ATP.
Sequence of wild-type EGFR kinase (P00533 25-1210): as above
Series [3] has as its target EGFR phosphorylation in H1975 (EGFR T790M mutant) cells (Homo sapiens (Human), UniProt P00533, L858R/T790M). Kind of series: Inhibition of EGFR phosphorylation in H1975 cells (ELISA).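 As to all read-outs here: Phospho-EGFR in cell lysates measured by capture-antibody ELISA with TMB substrate after compound exposure, cells given DMSO alone (0.5% final) serving as control.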 It counts as cell-based. As to conditions: for IC50: ELISA of EGFR phosphorylation, 1 h compound treatment, read-out: H1975 cell (IC50/μM); for Selective inhibitory activity against targets at the cell level [IC50 (A431 cell)/IC50 (H1975 cell)]: ratio of ELISA IC50 values.
Description: as §1, §2, §3, §4
(1) H1975 cells (purchased from the Cell Bank of the Type Culture Collection Committee, Chinese Academy of Sciences) were seeded into 96-well plates at a density of 1×10^4/well, each cell containing 90 μl of RPMI1640 medium with 10% (V/V) FBS, and cultured overnight at 37° C. in 5% (v/v) CO2.
(2) The compounds to be tested were diluted in accordance with the drug dilution method in the MTT assay. 10 μL of the diluted compound or diluted DMSO was added to the corresponding wells of the cell culture plate, and the final concentration of DMSO was 0.5% (V/V). The plate was cultured at 37° C. in 5% (v/v) CO2 for 1 h. The cell culture system treated with DMSO alone was used as cell control.
(3) The medium was removed and then 100 μL of cell lysis solution was added. The plate was sealed and placed in a refrigerator at −80° C. overnight. The cell lysis buffer was used as blank control.
The assay was conducted according to the instructions given in R&D DYC1095E or R&D DYC1095BE.
(1) R&D capture antibody ((DYC1095BE or DYC1095E)) was diluted with PBS in the proportion of 1:180.
as §5
(3) 300 μL of the blocking solution was added and the plate was incubated at 25° C. with shaking for 2 hours.
(4) The plate was washed 3 times with 360 μL of the wash buffer.
as §6, §7, §8
(8) The plate was washed 3 times with 360 μL of wash buffer.
(9) A reagent and B reagent in the TMB substrate (R&D DY999) were mixed in 1:1. 100 μL of the mixture was added to each well and incubated in dark at 25° C. with shaking for 20 min.
as §9
(11) The plate was read with a microplate reader (Thermo Multiskan K3). OD 450 values and OD570 values of the cell control, blank control, and drug treatment wells were measured. ODcell, ODblank and ODdrug treatment were obtained by subtracting the corresponding OD570 value from the OD 450 value of the same well.
2.3 Data Analysis Inhibition rate (%)=100%×(ODcell−ODdrug treatment)/(ODcell−ODblank)

For a further series, the system named is H1975 cells. Kind of series: Cell growth inhibition by MTT assay, H1975 cells.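 As to all read-outs here: MTT read-out in 96-well plates after 72 h compound exposure of H1975 and A431 cells, with selectivity given as the A431 IC50 divided by the H1975 IC50.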 The series is classed as cell-based. As to conditions: for IC50: MTT assay, 72 hours; for Selective inhibitory activity against cell growth [IC50 (A431 cell)/IC50 (H1975 cell)]: ratio of MTT IC50 values.
Series [4] concerns T790M mutant cell line H1975. As to conditions: background statement; cited from earlier work.
Series [5] is described as follows: Stability of compound CC0922. It counts as physicochemical.

Where only a bound is given, the exact number is not on record here.

Sequence of T790M/L858R double mutant EGFR kinase (P00533 25-1210 T790M/L858R): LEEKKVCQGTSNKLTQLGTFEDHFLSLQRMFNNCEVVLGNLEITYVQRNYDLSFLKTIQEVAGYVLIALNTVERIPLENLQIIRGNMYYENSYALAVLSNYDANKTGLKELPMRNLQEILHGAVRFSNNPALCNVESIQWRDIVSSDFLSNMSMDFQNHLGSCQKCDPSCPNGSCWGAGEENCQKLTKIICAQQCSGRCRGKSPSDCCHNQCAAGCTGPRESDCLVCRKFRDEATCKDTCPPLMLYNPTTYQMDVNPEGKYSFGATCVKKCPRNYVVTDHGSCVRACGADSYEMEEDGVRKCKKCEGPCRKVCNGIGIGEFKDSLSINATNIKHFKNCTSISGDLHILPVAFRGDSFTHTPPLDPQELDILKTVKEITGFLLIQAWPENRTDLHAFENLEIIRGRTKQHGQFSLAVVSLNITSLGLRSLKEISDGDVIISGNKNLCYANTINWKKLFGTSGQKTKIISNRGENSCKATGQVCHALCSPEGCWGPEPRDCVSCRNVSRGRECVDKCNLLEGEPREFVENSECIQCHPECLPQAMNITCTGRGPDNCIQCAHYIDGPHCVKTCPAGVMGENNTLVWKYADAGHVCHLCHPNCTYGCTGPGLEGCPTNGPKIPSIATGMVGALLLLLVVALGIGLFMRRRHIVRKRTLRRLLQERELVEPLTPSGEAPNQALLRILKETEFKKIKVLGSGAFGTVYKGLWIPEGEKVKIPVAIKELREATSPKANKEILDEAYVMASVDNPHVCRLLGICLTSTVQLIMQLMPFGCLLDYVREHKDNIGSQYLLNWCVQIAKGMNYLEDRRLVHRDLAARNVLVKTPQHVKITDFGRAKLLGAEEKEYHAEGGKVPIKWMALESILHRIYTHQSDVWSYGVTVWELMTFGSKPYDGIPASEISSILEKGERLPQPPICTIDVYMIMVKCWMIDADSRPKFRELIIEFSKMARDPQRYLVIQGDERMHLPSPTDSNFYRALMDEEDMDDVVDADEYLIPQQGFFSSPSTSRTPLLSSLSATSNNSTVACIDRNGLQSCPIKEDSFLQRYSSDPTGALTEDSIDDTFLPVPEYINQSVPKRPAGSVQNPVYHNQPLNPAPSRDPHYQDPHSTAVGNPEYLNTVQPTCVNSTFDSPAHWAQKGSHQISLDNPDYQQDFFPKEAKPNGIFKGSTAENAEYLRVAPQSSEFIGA
Sequence of EGFR phosphorylation in H1975 (EGFR T790M mutant) cells (P00533 25-1210 T790M/L858R): as above
Description for NIH3T3 cells: The steps of the MTT assay were carried out using methods well known to those skilled in the art, and all the reagents used in the methods are commercially available.
After the first wash, another 1.5 mL of trypsin/EDTA was added to digest the adherent cells until the cells detached. Then 3.5 mL of the culture medium was added to terminate the digestion. The digested cell suspension was transferred to a 15 mL centrifuge tube and centrifuged at 1300 rpm for 3 minutes. The supernatant was discarded and the cells were resuspended in fresh medium. The cells were then counted and diluted to the following concentrations: 27,800 cells per milliliter of H1975 cells, 33,300 cells per milliliter of A431 cells and NIH3T3 cells (purchased from the Cell Bank of the Type Culture Collection Committee, Chinese Academy of Sciences).
After the drug was added, the cells were incubated in an incubator for 72 hours. 10 μL of 5 mg/ml MTT (Sigma, M5655) solution was added to each well. The 96-well plate was then incubated in a 37° C. and 5% CO2 incubator for 4 h.
The plate was then centrifuged at 2000 rpm for 5 min. After the supernatant was removed, 150 μl of DMSO was added to each well and the plate was shaken in a shaker until all crystal violet was dissolved.
Description for wild-type EGFR kinase: All reagents used in the following z′-lyte assay were purchased from Invitrogen.
The working concentrations of each component in 10 μL wild-type EGFR kinase reaction system were: 10 μM ATP, 0.8 ng/μL wild-type EGFR kinase, 2 μM Tyr04 substrate (Invitrogen, PV3193). The concentration of DMSO after addition of the compound to be tested was 2 vol %.
10 mM drug stock solution was dissolved at room temperature and gradiently diluted to a final concentration of 4-0.002 μM with 8 vol % DMSO solution. […] Then 2.5 μl of ATP was added to initiate the reaction. Wherein, ATP was replaced by the reaction buffer in well C1, no drug was added to well C2, and the phosphorylated substrate was added to well C3 according to the instructions. The mixture was allowed to react at 25° C. in a shaker in dark for 60 min. 5 μL of Development Reagent B (Invitrogen, diluted with TR-FRET dilution buffer) was added and allowed to react at room temperature in the shaker for 60 minutes.
The inhibition rate was calculated according to the following method (refer to the instructions of Invitrogen, PV3193):
1. ER=Coumarin Emission (450 nm)/Fluorescein Emission (520 nm)
The half-inhibitory concentration IC50 was obtained through fitting calculation by using XLFIT 5.0 software (IDBS, UK).

As for `C=CC(=O)Nc1cc(Nc2ncc3ccc(-c4ccccc4)n3n2)c(OC)cc1N(C)CCN(C)C` [Compound J-11, N-(2-((2-(dimethylamino)ethyl)(methyl)amino)-4-methoxy-5-(7-phenylpyrrolo[1,2-f][1,2,4]triazin-2-ylamino)phenyl)acrylamide], the IC50 with NIH3T3 cells was 5.57 µM; in [1], 0.0024 µM; with A431 cells, 0.621 µM; in [2] it was 0.237 µM; at wild-type EGFR kinase it was 0.01 µM; in [3], 0.063 µM. The compound also came in with an IC50 with H1975 cells of 0.026 µM. The “Selective inhibitory activity against enzymes [IC50 (EGFR WT)/IC50 (T790M/L858R)]” value in series [1] stood at 4.2. The “Selective inhibitory activity against targets at the cell level [IC50 (A431 cell)/IC50 (H1975 cell)]” value in [3] is given as 3.8. In addition, the “Selective inhibitory activity against cell growth [IC50 (A431 cell)/IC50 (H1975 cell)]” value in the series with H1975 cells is given as 23.9.

For the compound `C=CC(=O)Nc1cc(Nc2ncc3ccc(C4=CCCCC4)n3n2)c(OC)cc1N(C)CCN(C)C` [Compound J-5, N-(5(7-cyclohexenyl-pyrrolo[1,2-f][1,2,4]triazin-2-ylamino)-2-((2-(dimethylamino)ethyl)(methyl)amino)-4-methoxyphenyl)acrylamide], the IC50 in the series with NIH3T3 cells came to 2.82 µM; in [1], 0.003 µM; with A431 cells, 0.354 µM; in [2], 0.208 µM; at wild-type EGFR kinase, 0.009 µM; in [3], 0.106 µM. Further, the IC50 in the series on H1975 cells amounted to 0.023 µM. Besides, the “Selective inhibitory activity against enzymes [IC50 (EGFR WT)/IC50 (T790M/L858R)]” value in series [1] is on record as 3. The “Selective inhibitory activity against targets at the cell level [IC50 (A431 cell)/IC50 (H1975 cell)]” value in [3] is 2. Further, in the series on H1975 cells, the “Selective inhibitory activity against cell growth [IC50 (A431 cell)/IC50 (H1975 cell)]” value is reported as 15.4.

`C#Cc1cccc(Nc2ncnc3cc(OCCOC)c(OCCOC)cc23)c1` [erlotinib]: in series [4], the “activity in the T790M mutant cell line H1975” value is “greater than 3 uM”.

Consider `C=CC(=O)Nc1cc(Nc2ncc3ccc(-c4cnn(C)c4)n3n2)c(OC)cc1N1CCC(N(C)C)CC1` [Compound J-2, N-(2-(4-(dimethylamino)piperidin-1-yl)-4-methoxy-5-(7-(1-methyl-1H-pyrazol-4-yl)pyrrolo[1,2-f][11,2,4]triazin-2-ylamino)phenyl)acrylamide], for which the IC50 in the series with NIH3T3 cells stood at 5.46 µM; in [1], 0.002 µM; with A431 cells, 0.403 µM; in [2], 0.303 µM; on wild-type EGFR kinase, 0.023 µM; in series [3] it was 0.025 µM. This compound yielded an IC50 in the series with H1975 cells of 0.011 µM. The “Selective inhibitory activity against enzymes [IC50 (EGFR WT)/IC50 (T790M/L858R)]” value in series [1] came to 11.5. For the same compound, the “Selective inhibitory activity against targets at the cell level [IC50 (A431 cell)/IC50 (H1975 cell)]” value in [3] was 12.1. In the series with H1975 cells, the “Selective inhibitory activity against cell growth [IC50 (A431 cell)/IC50 (H1975 cell)]” value was 36.6.

With `C=CC(=O)Nc1cccc(-c2ccc3cnc(Nc4ccc(N(C)CCN(C)C)cc4OC)nn23)c1` [CC0922], the stability entry in series [5] is recorded as “very unstable”.

Turning to `C=CC(=O)Nc1cc(Nc2ncc3ccc(-c4cnn(C)c4)n3n2)c(OC)cc1N1CCN(C)CC1` [Compound J-4, N-(4-methoxy-5-(7-(1-methyl-1H-pyrazol-4-yl)pyrrolo[1,2-f][1,2,4]triazin-2-ylamino)-2-(4-methyl-1-yl)phenyl)acrylamide], the IC50 is 3.65 µM with NIH3T3 cells; 0.002 µM in series [1]; 0.461 µM in the series with A431 cells; 1.8 µM in series [2]; 0.035 µM on wild-type EGFR kinase; 0.004 µM in [3]. This compound gave an IC50 in the series on H1975 cells of 0.014 µM. Also, the “Selective inhibitory activity against enzymes [IC50 (EGFR WT)/IC50 (T790M/L858R)]” value in [1] came out at 17.5. In series [3], the “Selective inhibitory activity against targets at the cell level [IC50 (A431 cell)/IC50 (H1975 cell)]” value was determined as 450. Besides, in the series on H1975 cells, the “Selective inhibitory activity against cell growth [IC50 (A431 cell)/IC50 (H1975 cell)]” value worked out at 32.9.

With `C=CC(=O)Nc1cc(Nc2ncc3ccc(-c4cnc5ccccc5c4)n3n2)c(OC)cc1N1CCC(N(C)C)CC1` [Compound J-13, N-(2-(4-(dimethylamino)piperidin-1-yl)-4-methoxy-5-(7-(quinolin-3-yl)pyrrolo[1,2-f][1,2,4]triazin-2-ylamino)phenyl)acrylamide], the IC50 is 2.97 µM with NIH3T3 cells; 0.005 µM in [1]; 0.369 µM in the series with A431 cells; 0.301 µM in series [2]; 0.021 µM on wild-type EGFR kinase; 0.043 µM in [3]. The same compound gave an IC50 in the series with H1975 cells of 0.013 µM. The “Selective inhibitory activity against enzymes [IC50 (EGFR WT)/IC50 (T790M/L858R)]” value in series [1] is given as 4.2. Further, the “Selective inhibitory activity against targets at the cell level [IC50 (A431 cell)/IC50 (H1975 cell)]” value in series [3] worked out at 7. For the same compound, in the series with H1975 cells, the “Selective inhibitory activity against cell growth [IC50 (A431 cell)/IC50 (H1975 cell)]” value came to 28.4.

For the compound `C=CC(=O)Nc1cc(Nc2ncc3ccc(-c4cccnc4)n3n2)c(OC)cc1N(C)CCN(C)C` [Compound J-6, N-(2-((2-(dimethylamino)ethyl)(methyl)amino)-4-methoxy-5-(7-(pyridin-3-yl)pyrrolo[1,2-f][1,2,4]triazin-2-ylamino)phenyl)acrylamide], the IC50 in the series with NIH3T3 cells came out at 8.21 µM; in series [1], 0.0024 µM; in the series with A431 cells, 0.427 µM; in series [2], 0.309 µM; on wild-type EGFR kinase, 0.013 µM; in series [3], 0.027 µM. The compound also returned an IC50 in the series on H1975 cells of 0.028 µM. Besides, the “Selective inhibitory activity against enzymes [IC50 (EGFR WT)/IC50 (T790M/L858R)]” value in series [1] is listed as 5.42. Besides, the “Selective inhibitory activity against targets at the cell level [IC50 (A431 cell)/IC50 (H1975 cell)]” value in series [3] was 11.4. Moreover, the “Selective inhibitory activity against cell growth [IC50 (A431 cell)/IC50 (H1975 cell)]” value in the series with H1975 cells is listed as 15.3.

In the case of `C=CC(=O)Nc1cc(Nc2ncc3ccc(-c4cnn(C)c4)n3n2)c(OC)cc1OCCN(C)C` [Compound J-3, N-(2-(2-(dimethylamino)ethoxyl)-4-methoxy-5-(7-(1-methyl-1H-pyrazol-4-yl)pyrrolo[1,2-f][1,2,4]triazin-2-ylamino)phenyl)acrylamide], the IC50 amounted to 3.91 µM with NIH3T3 cells; 0.001 µM in [1]; 0.168 µM with A431 cells; 0.093 µM in [2]; 0.01 µM on wild-type EGFR kinase; 0.001 µM in series [3]. In addition, the IC50 with H1975 cells was determined as 0.008 µM. Also, the “Selective inhibitory activity against enzymes [IC50 (EGFR WT)/IC50 (T790M/L858R)]” value in series [1] was 10. Further, the “Selective inhibitory activity against targets at the cell level [IC50 (A431 cell)/IC50 (H1975 cell)]” value in [3] is reported as 93. Besides, in the series with H1975 cells, the “Selective inhibitory activity against cell growth [IC50 (A431 cell)/IC50 (H1975 cell)]” value is given as 21.

In the case of `COc1cc2ncnc(Nc3ccc(F)c(Cl)c3)c2cc1OCCCN1CCOCC1` [gefitinib], the “activity in the T790M mutant cell line H1975” value in series [4] is given as “greater than 3 uM”.

Consider `C=CC(=O)Nc1cc(Nc2ncc3ccc(-c4ccn(C)c4)n3n2)c(OC)cc1N(C)CCN(C)C` [Compound J-12, N-(2-((2-(dimethylamino)ethyl)(methyl)amino)-4-methoxy-5-(7-(1-methyl-1H-pyrrol-3-yl)pyrrolo[1,2-f][1,2,4]triazin-2-ylamino)phenyl)acrylamide], for which the IC50 with NIH3T3 cells amounted to 4.73 µM; in [1], 0.0019 µM; in the series with A431 cells it was 0.332 µM; in series [2] it was 0.023 µM; at wild-type EGFR kinase it was 0.008 µM; in series [3], 0.015 µM. For the same compound, in the series with H1975 cells, the IC50 came to 0.009 µM. Also, the “Selective inhibitory activity against enzymes [IC50 (EGFR WT)/IC50 (T790M/L858R)]” value in [1] is given as 4.2. Besides, the “Selective inhibitory activity against targets at the cell level [IC50 (A431 cell)/IC50 (H1975 cell)]” value in series [3] worked out at 1.5. In addition, the “Selective inhibitory activity against cell growth [IC50 (A431 cell)/IC50 (H1975 cell)]” value in the series with H1975 cells was found to be 36.9.

As to `C=CC(=O)Nc1cc(Nc2ncc3ccc(-c4cnn(C)c4)n3n2)c(OC)cc1N(C)CCN(C)C` [Compound J-1, N-(2-((2-(dimethylamino)ethyl)(methyl)amino)-4-methoxy-5-(7-(1-methyl-1H-pyrazol-4-yl)pyrrolo[1,2-f][1,2,4]triazin-2-ylamino)phenyl)acrylamide], the IC50 in the series with NIH3T3 cells stood at 4.83 µM; in series [1], 0.001 µM; in the series with A431 cells, 0.327 µM; in series [2], 0.112 µM; at wild-type EGFR kinase, 0.004 µM; in [3], 0.012 µM. For the same compound, in the series on H1975 cells, the IC50 is < 0.00457 µM. Moreover, the “Selective inhibitory activity against enzymes [IC50 (EGFR WT)/IC50 (T790M/L858R)]” value in series [1] is on record as 4. Further, the “Selective inhibitory activity against targets at the cell level [IC50 (A431 cell)/IC50 (H1975 cell)]” value in [3] is 9.3. Moreover, the “Selective inhibitory activity against cell growth [IC50 (A431 cell)/IC50 (H1975 cell)]” value in the series on H1975 cells is reported as 71.6.

With `C=CC(=O)Nc1cc(Nc2ncc3ccc(C)n3n2)c(OC)cc1N(C)CCN(C)C` [Compound J-9, N-(2-((2-(dimethylamino)ethyl)(methyl)amino)-4-methoxy-5-(7-methylpyrrolo[1,2-f][1,2,4]triazin-2-ylamino)phenyl)acrylamide], the IC50 in the series on NIH3T3 cells is > 10 µM; in series [1] it was 0.016 µM; in the series on A431 cells, 1.65 µM; in series [2], 0.92 µM; on wild-type EGFR kinase it was 0.105 µM; in series [3], 0.186 µM. For the same compound, in the series with H1975 cells, the IC50 came to 0.125 µM. Moreover, the “Selective inhibitory activity against enzymes [IC50 (EGFR WT)/IC50 (T790M/L858R)]” value in series [1] is 6.6. Besides, the “Selective inhibitory activity against targets at the cell level [IC50 (A431 cell)/IC50 (H1975 cell)]” value in series [3] came out at 5. In addition, in the series with H1975 cells, the “Selective inhibitory activity against cell growth [IC50 (A431 cell)/IC50 (H1975 cell)]” value amounted to 13.2.
